From patent US20240317775A1, “H4 Antagonist Compounds” (HEPTARES THERAPEUTICS LIMITED, priority 2020, published 2024)

Molecular target: T1, human H4 receptor (Homo sapiens, UniProt Q9H3N8)
T1 construct: expressed in transfected cells; host or cells: HEKf cells infected with baculovirus
Test: H4 Antagonist Functional cAMP Gi Assay
Type: cell-based
Details: HEKf cells expressing human H4 receptor; functional antagonist pKb by Cheng-Prusoff vs histamine; read-out: Human H4 cAMP fpKb (converted)
Procedure: HEKf cells were infected overnight using baculovirus expressing the human H4 receptor, then centrifuged at 1,200 rpm for 5 min, frozen in cell freezing medium (Sigma) and stored at −150° C. On the day of assay, the cells were thawed and resuspended in HBSS with 500 nM IBMX to achieve a density of 1,500 cells/well. H4 ligands were prepared in DMSO and stamped by LabCyte ECHO acoustic dispensing at 25 nL in low volume plates. 10 μL/well cells were plated in the presence of 1 μM forskolin, subjected to centrifugation at 1,200 rpm for 1 min and incubated for 30 min prior to addition of Cisbio cAMP detection reagents to a total volume 20 μL/well. […] Following detection reagent addition and shaking at room temperature for 60 min, cAMP accumulation was measured using HTRF on a PheraStar plate reader. EC50 values were generated using a 4-parameter logistical fit equation to quantify agonist potencies. Functional antagonist affinity values were generated using the Cheng-Prusoff equation to calculate a pKb value using the antagonist assay data.

| Kb | SMILES |
| --- | --- |
| 0.0398 µM | CC(C)[C@H]1CCOc2c(nc(N)nc2N2CC[C@@H](N)C2)N1 [Example 12-2, (R)-4-((R)-3-Aminopyrrolidin-1-yl)-8-isopropyl-6,7,8,9-tetrahydropyrimido[5,4-b][1,4]oxazepin-2-amine] |
| 0.0126 µM | CN[C@@H]1CCN(c2nc(N)nc3c2OCC[C@H](C(C)C)N3)C1 [Example 11-6, (R)-8-Isopropyl-4-((R)-3-(methylamino)pyrrolidin-1-yl)-6,7,8,9-tetrahydropyrimido[5,4-b][1,4]oxazepin-2-amine] |
| 0.0158 µM | CNC1CN(c2nc(N)nc3c2OCC[C@H](C(C)C)N3)C1 [Example 13-2, (R)-8-Isopropyl-4-(3-(methylamino)azetidin-1-yl)-6,7,8,9-tetrahydropyrimido[5,4-b][1,4]oxazepin-2-amine] |
| 0.0316 µM | CCC1CNc2nc(N)nc(N3CC[C@@H](NC)C3)c2OC1 (stereo partly drawn) [Example 11-8, 7-Ethyl-4-((R)-3-(methylamino)pyrrolidin-1-yl)-6,7,8,9-tetrahydropyrimido[5,4-b][1,4]oxazepin-2-amine] |
| 0.398 µM | CN[C@@H]1CCN(c2nc(C)nc3c2OCC(C(C)C)N3)C1 (stereo partly drawn) [Example 10-1, (3R)-1-(7-Isopropyl-2-methyl-7,8-dihydro-6H-pyrimido[5,4-b][1,4]oxazin-4-yl)-N-methylpyrrolidin-3-amine] |
| 0.2 µM | CN[C@@H]1CCN(c2nc(N)nc3c2OCCCN3)C1 [Example 11-1, (R)-4-(3-(Methylamino)pyrrolidin-1-yl)-6,7,8,9-tetrahydropyrimido[5,4-b][1,4]oxazepin-2-amine] |
| 0.251 µM | CN[C@@H]1CCN(c2nc(N)nc3c2OCC(C)CN3)C1 (stereo partly drawn) [Example 11-7, 7-Methyl-4-((R)-3-(methylamino)pyrrolidin-1-yl)-6,7,8,9-tetrahydropyrimido[5,4-b][1,4]oxazepin-2-amine] |
| 0.1 µM | CN[C@@H]1CCN(c2ncnc3c2OCC[C@H](C(C)C)N3)C1 [Example 14-2, (R)-1-((R)-8-Isopropyl-6,7,8,9-tetrahydropyrimido[5,4-b][1,4]oxazepin-4-yl)-N-methylpyrrolidin-3-amine] |
| 0.794 µM | CN[C@@H]1CCN(c2nc(N)nc3c2OCC[C@@H]2CCCN32)C1 [Example 11-10, (S)-4-((R)-3-(Methylamino)pyrrolidin-1-yl)-6,7,7a,8,9,10-hexahydropyrimido[5,4-b]pyrrolo[1,2-d][1,4]oxazepin-2-amine] |

Continued, molecule first:

| SMILES | Kb |
| --- | --- |
| CC(C)[C@@H]1COc2c(nc(N)nc2N2CC(N)C2)N1 [Example 4-2, (R)-4-(3-Aminoazetidin-1-yl)-7-isopropyl-7,8-dihydro-6H-pyrimido[5,4-b][1,4]oxazin-2-amine] | 0.0631 µM |
| CN[C@@H]1CCN(c2nc(N)nc3c2OCC(C(C)C)N3C)C1 (stereo partly drawn) [Example 1-20, 7-Isopropyl-8-methyl-4-((R)-3-(methylamino)pyrrolidin-1-yl)-7,8-dihydro-6H-pyrimido[5,4-b][1,4]oxazin-2-amine] | 0.1 µM |
| CN[C@@H]1CCN(c2nc(N)nc3c2OCC(C)N3)C1 (stereo partly drawn) [Example 1-2, 7-Methyl-4-((R)-3-(methylamino)pyrrolidin-1-yl)-7,8-dihydro-6H-pyrimido[5,4-b][1,4]oxazin-2-amine] | 0.0126 µM |
| CO[C@H](C)[C@@H]1COc2c(nc(N)nc2N2CC[C@@H](N)C2)N1 [Example 2-4, (S)-4-((R)-3-Aminopyrrolidin-1-yl)-7-((R)-1-methoxyethyl)-7,8-dihydro-6H-pyrimido[5,4-b][1,4]oxazin-2-amine] | 0.0501 µM |
| CN[C@@H]1CCN(c2nc(N)nc3c2O[C@@H](C)[C@@H](C)N3)C1 [Example 1-16, (6S,7R)-6,7-Dimethyl-4-((R)-3-(methylamino)pyrrolidin-1-yl)-7,8-dihydro-6H-pyrimido[5,4-b][1,4]oxazin-2-amine] | 0.0316 µM |
| CNC1CN(c2nc(N)nc3c2OC[C@@H](C(C)(C)OC)N3)C1 [Example 3-6, (S)-7-(2-Methoxypropan-2-yl)-4-(3-(methylamino)azetidin-1-yl)-7,8-dihydro-6H-pyrimido[5,4-b][1,4]oxazin-2-amine] | 0.0251 µM |
| CNC1CN(c2nc(N)nc3c2OC[C@@H]([C@H](C)OC)N3)C1 [Example 3-5, (S)-7-((S)-1-Methoxyethyl)-4-(3-(methylamino)azetidin-1-yl)-7,8-dihydro-6H-pyrimido[5,4-b][1,4]oxazin-2-amine] | 0.02 µM |
| CN[C@@H]1CCN(c2ncnc3c2OC(C)CN3)C1 (stereo partly drawn) [Example 7-5, (3R)—N-Methyl-1-(6-methyl-7,8-dihydro-6H-pyrimido[5,4-b][1,4]oxazin-4-yl)pyrrolidin-3-amine] | 0.251 µM |
| CC[C@@H]1COc2c(nc(N)nc2N2CC[C@@H](N)C2)N1 [Example 2-1, (R)-4-((R)-3-Aminopyrrolidin-1-yl)-7-ethyl-7,8-dihydro-6H-pyrimido[5,4-b][1,4]oxazin-2-amine] | 0.00316 µM |
| CN[C@@H]1CCN(c2ncnc3c2OC[C@@H]([C@@H](C)OC)N3)C1 [Example 7-4, (R)-1-((S)-7-((R)-1-Methoxyethyl)-7,8-dihydro-6H-pyrimido[5,4-b][1,4]oxazin-4-yl)-N-methylpyrrolidin-3-amine] | 0.0316 µM |
| CN[C@@H]1CCN(c2nc(N)nc3c2OC[C@@H]([C@H](C)OC)N3)C1 [Example 1-11, (S)-7-((S)-1-Methoxyethyl)-4-((R)-3-(methylamino)pyrrolidin-1-yl)-7,8-dihydro-6H-pyrimido[5,4-b][1,4]oxazin-2-amine] | 0.0158 µM |
| CO[C@@H](C)[C@@H]1COc2c(nc(N)nc2N2CC[C@@H](N)C2)N1 [Example 2-5, (S)-4-((R)-3-Aminopyrrolidin-1-yl)-7-((S)-1-methoxyethyl)-7,8-dihydro-6H-pyrimido[5,4-b][1,4]oxazin-2-amine] | 0.0794 µM |
| CC[C@@H]1COc2c(nc(N)nc2N2CC(N)C2)N1 [Example 4-1, (R)-4-(3-Aminoazetidin-1-yl)-7-ethyl-7,8-dihydro-6H-pyrimido[5,4-b][1,4]oxazin-2-amine] | 0.0794 µM |
| CO[C@H](C)[C@@H]1COc2c(ncnc2N2CC[C@@H](N)C2)N1 [Example 8-2, (R)-1-((S)-7-((R)-1-Methoxyethyl)-7,8-dihydro-6H-pyrimido[5,4-b][1,4]oxazin-4-yl)pyrrolidin-3-amine] | 0.631 µM |
| CN[C@@H]1CCN(c2nc(N)nc3c2OCC(CC(C)C)N3)C1 (stereo partly drawn) [Example 1-7, 7-isobutyl-4-((R)-3-(methylamino)pyrrolidin-1-yl)-7,8-dihydro-6H-pyrimido[5,4-b][1,4]oxazin-2-amine] | 0.02 µM |
| CN[C@@H]1CCN(c2nc(N)nc3c2O[C@H](C)[C@H](C)N3)C1 [Example 1-19, (6R,7S)-6,7-Dimethyl-4-((R)-3-(methylamino)pyrrolidin-1-yl)-7,8-dihydro-6H-pyrimido[5,4-b][1,4]oxazin-2-amine] | 0.0794 µM |
| CC[C@@H]1COc2c(nc(N)nc2N2CC(NC)C2)N1 [Example 3-1, (R)-7-Ethyl-4-(3-(methylamino)azetidin-1-yl)-7,8-dihydro-6H-pyrimido[5,4-b][1,4]oxazin-2-amine] | 0.002 µM |
| CN[C@@H]1CCN(c2nc(N)nc3c2OC[C@@H](C2CC2)N3)C1 [Example 1-6, (R)-7-Cyclopropyl-4-((R)-3-(methylamino)pyrrolidin-1-yl)-7,8-dihydro-6H-pyrimido[5,4-b][1,4]oxazin-2-amine] | 0.000631 µM |
| CN[C@@H]1CCN(c2nc(N)nc3c2O[C@H](C)[C@@H](C)N3)C1 [Example 1-17, (6R,7R)-6,7-Dimethyl-4-((R)-3-(methylamino)pyrrolidin-1-yl)-7,8-dihydro-6H-pyrimido[5,4-b][1,4]oxazin-2-amine] | 0.0794 µM |
| CN[C@@H]1CCN(c2nc(N)nc3c2OC[C@]2(C)CCCN32)C1 [Example 1-23, (S)-6a-Methyl-4-((R)-3-(methylamino)pyrrolidin-1-yl)-6a,7,8,9-tetrahydro-6H-pyrimido[5,4-b]pyrrolo[1,2-d][1,4]oxazin-2-amine] | 0.0398 µM |
| COC(C)(C)[C@@H]1COc2c(nc(N)nc2N2CC[C@@H](N)C2)N1 [Example 2-6, (S)-4-((R)-3-Aminopyrrolidin-1-yl)-7-(2-methoxypropan-2-yl)-7,8-dihydro-6H-pyrimido[5,4-b][1,4]oxazin-2-amine] | 0.02 µM |
| CN[C@@H]1CCN(c2nc(N)nc3c2OCC(C2COC2)N3)C1 (stereo partly drawn) [Example 1-13, 4-((R)-3-(Methylamino)pyrrolidin-1-yl)-7-(oxetan-3-yl)-7,8-dihydro-6H-pyrimido[5,4-b][1,4]oxazin-2-amine] | 0.0316 µM |
| CN[C@@H]1CCN(c2nc(N)nc3c2O[C@@H](C)[C@H](C)N3)C1 [Example 1-18, (6S,7S)-6,7-Dimethyl-4-((R)-3-(methylamino)pyrrolidin-1-yl)-7,8-dihydro-6H-pyrimido[5,4-b][1,4]oxazin-2-amine] | 0.316 µM |
| CN[C@@H]1CCN(c2ncnc3c2OC[C@@H](C2CC2)N3)C1 [Example 7-2, (R)-1-((R)-7-Cyclopropyl-7,8-dihydro-6H-pyrimido[5,4-b][1,4]oxazin-4-yl)-N-methylpyrrolidin-3-amine] | 0.00316 µM |
| CNC1CN(c2nc(N)nc3c2OC[C@@H](C2CC2)N3)C1 [Example 3-3, (R)-7-Cyclopropyl-4-(3-(methylamino)azetidin-1-yl)-7,8-dihydro-6H-pyrimido[5,4-b][1,4]oxazin-2-amine] | 0.00794 µM |

Molecular target: hERG (Homo sapiens, UniProt Q12809)
Sequence (Q12809 whole entry): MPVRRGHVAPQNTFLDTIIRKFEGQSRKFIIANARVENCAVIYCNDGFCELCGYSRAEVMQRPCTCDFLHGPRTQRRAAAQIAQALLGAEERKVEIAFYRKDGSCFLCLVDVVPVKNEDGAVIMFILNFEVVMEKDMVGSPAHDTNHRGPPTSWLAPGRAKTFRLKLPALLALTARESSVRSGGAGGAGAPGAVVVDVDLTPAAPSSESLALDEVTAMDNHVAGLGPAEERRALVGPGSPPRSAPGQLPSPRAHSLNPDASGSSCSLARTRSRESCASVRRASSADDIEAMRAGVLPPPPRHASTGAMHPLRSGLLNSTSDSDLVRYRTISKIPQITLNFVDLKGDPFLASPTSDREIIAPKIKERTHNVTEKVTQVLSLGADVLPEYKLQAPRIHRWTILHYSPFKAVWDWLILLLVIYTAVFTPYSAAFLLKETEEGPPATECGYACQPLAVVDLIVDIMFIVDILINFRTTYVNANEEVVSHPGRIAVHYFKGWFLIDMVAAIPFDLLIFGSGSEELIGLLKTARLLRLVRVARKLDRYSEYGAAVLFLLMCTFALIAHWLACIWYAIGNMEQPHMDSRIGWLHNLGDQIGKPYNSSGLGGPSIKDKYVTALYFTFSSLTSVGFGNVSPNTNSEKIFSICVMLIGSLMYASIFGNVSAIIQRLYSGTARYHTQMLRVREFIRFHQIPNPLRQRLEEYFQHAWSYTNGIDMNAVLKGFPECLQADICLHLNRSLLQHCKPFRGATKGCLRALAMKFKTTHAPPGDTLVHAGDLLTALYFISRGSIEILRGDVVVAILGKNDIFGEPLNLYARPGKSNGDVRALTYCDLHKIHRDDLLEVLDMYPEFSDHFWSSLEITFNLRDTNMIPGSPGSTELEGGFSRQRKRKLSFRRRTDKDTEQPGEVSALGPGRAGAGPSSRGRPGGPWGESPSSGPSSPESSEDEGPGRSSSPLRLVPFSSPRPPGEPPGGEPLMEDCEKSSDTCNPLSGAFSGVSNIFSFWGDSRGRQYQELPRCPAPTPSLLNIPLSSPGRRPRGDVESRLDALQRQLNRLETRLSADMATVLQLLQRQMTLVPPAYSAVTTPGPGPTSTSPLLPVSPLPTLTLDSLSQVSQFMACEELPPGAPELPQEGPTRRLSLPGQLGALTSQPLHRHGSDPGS
Test: hERG single-concentration assay (QPatch automated patch clamp, CHO cells, 30 μM)
Type: cell-based
Details: CHO cells stably expressing hERG
Source text: Series resistance (4-15 MΩ) was compensated by >80%.

| SMILES | inhibition at 30 µM |
| --- | --- |
| CN[C@@H]1CCN(c2cc(NCC3CC3)nc(N)n2)C1 [PF-3893787, reference compound] | 67% |
